Test results published in patent publication US20110076693A1, “METHOD FOR DETECTION AND QUANTIFICATION OF PLK1 EXPRESSION AND ACTIVITY” (The U.S.A. as Represented by the Secretary , Dept.of Health …, priority 2008, published 2011).

Experiments:
PBD of Plk1 = biological target: T1, PBD of Plk1 (Homo sapiens, UniProt P53350); assay: Binding of Plk1-phosphorylated 32P-PBIPtide-A6 to bead-bound GST-PBD; conditions: GST-PBD vs GST-PBD (H538A K540M), TBSN buffer, 1 hour at 4° C.
T1 construct: made in house
T1 sequence (P53350 326-603 limits assumed): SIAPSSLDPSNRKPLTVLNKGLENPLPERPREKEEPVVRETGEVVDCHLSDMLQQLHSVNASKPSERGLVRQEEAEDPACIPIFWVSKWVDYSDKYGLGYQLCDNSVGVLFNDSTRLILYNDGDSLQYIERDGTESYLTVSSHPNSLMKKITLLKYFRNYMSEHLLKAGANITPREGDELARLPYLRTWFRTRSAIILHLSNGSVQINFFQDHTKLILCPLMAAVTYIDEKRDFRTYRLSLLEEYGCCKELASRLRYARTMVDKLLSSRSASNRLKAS

Plk1 [1] = assay: PBIPtide-based Plk1 ELISA with shLuc/shPlk1 HeLa lysates; conditions: compared with PBIPtide4
Experimental: The ELISA wells were coated with soluble GST-PBIPtide containing the T78 motif and then reacted with total cellular lysates. The Plk1 activity in the total lysates generates the p-T78 epitope to which Plk1 itself binds. After reaction, Plk1 activity is quantified by incubating the ELISA wells with either anti-p-T78 antibody (to detect the p-T78 epitope generated) or anti-Plk1 antibody (to detect Plk1 bound to the p-T78 epitope), followed by HRP-conjugated secondary antibody (the grey antibody with a black dot). The asterisks indicate 3.3′, 5.5′-tetramethylbenzidine (TMB) substrate and its reaction product, generated by HRP. […] HeLa cells were silenced for control luciferase (shLuc) or Plk1 (shPlk1) and then treated with nocodazole for 16 hours to arrest the cells in prometaphase (a condition that maximizes Plk1 activity). […] Buffer indicates no-lysate control. The same lysates were subjected to immunoblotting analysis to determine the level of Plk1 in the lysates. […] GST-PBIPtide-A6-coated ELISA wells were incubated with the indicated amount of recombinant Plk1 purified from Sf9 cells. The level of the p-T78 epitope generated and the amount of Plk1 bound to the p-T78 GST-PBIPtide-A6 were quantified by using anti-p-T78 and anti-Plk1 antibodies, respectively. […] Total lysates were prepared from these cells and applied to the GST-PBIPtide-A6-coated wells. Buffer indicates no-lysate control. […]

Plk1 [2] = assay: Direct Plk1 kinase assay with total HeLa lysates and [γ-32P]ATP using GST-PBIPtides as substrate; assay type: biochemical, human; conditions: shPlk1 HeLa lysates, compared with PBIPtide4
Experimental: FIGS. 1A-1B are digital images of Western blots, a schematic representation of a kinase assay and a set of bar graphs showing that a peptide that contains the T78 motif of PBIP1 (a PBIPtide) can be used to quantitate the kinase activity of Plk1 in vitro. […] FIG. 1A Left, mitotic HeLa lysates were incubated with either bead-immobilized control glutathione S-transferase (GST) or GST-PBIPtide4 in TBSN buffer containing phosphatase inhibitors. Beads were precipitated and washed and then subjected to in vitro kinase assays in the presence of [γ-^32P]-ATP. Samples were separated by sodium dodecyl sulfate polyacrylamide gel electrophoresis (SDS/PAGE), transferred to polyvinylidene fluoride (PVDF), and then exposed (Autorad). The membrane was immunoblotted with the indicated antibodies and then stained with Coomassie (CBB). Note that the anti-p-T78 signal (α-p-T78 panel) is relatively weak because the incubation was carried out in TBSN at 4° C. FIG. 1A Right is schematic diagram illustrating the experimental procedures described in FIG. 1A Left. The ellipsoids depict bead-associated GST-PBIPtide containing the T78 motif. […] The GST-PBIPtide bands were excised, and incorporated 32P was quantified. […]
It was then determined whether the Plk1 activity present in total cellular lysates could be directly measured by incubating the lysates with GST-PBIPtide. […]

Substance: GST-PBIPtide-A6: N-terminal GST fusion of SEQ ID NO: 8; 6 repeats of the PBIPtide (Y68F T70A Y81F) triple mutant joined by GGPGG linkers
- PBD binding after Plk1-dependent phosphorylation of the T78 motif (PBD of Plk1): sufficient for the PBD binding
- Sensitivity to Plk1 activity (Plk1 [1]): mildly, but reproducibly, increased sensitivity
- Level of 32P incorporation after Plk1 depletion (Plk1 [2]): mildly, but reproducibly, lower level
